Assay results: the supplement of paper PMC4862054

Assays:
Test in all cases: normalised response (% of control), CellTiter-Glo; higher = more viable cells (100 = DMSO, 0 = benzethonium chloride kill control)
Details in all cases: incubation time: 72 h
BT-474 = system: BT-474
How it was run: (§1)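 Breast cancer cell lines were exposed for 72 h in 384-well plates to compound at 5 concentrations, 10-fold apart, covering a 10,000-fold range fixed for each compound. Plates were read for CellTox Green fluorescence and CellTiter-Glo luminescence and normalised to 0.1 % DMSO (100) and a positive kill control (0). Each value is the normalised signal at one concentration of the series.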

BT-549 = system: BT-549
How it was run: as §1

CAL-120 = system: CAL-120
How it was run: as §1

CAL-148 = system: CAL-148
How it was run: as §1

CAL-51 = system: CAL-51
How it was run: as §1

CAL-85-1 = system: CAL-85-1
How it was run: as §1

DU-4475 = system: DU-4475
How it was run: as §1

HCC1143 = system: HCC1143
How it was run: as §1

HCC1599 = system: HCC1599
How it was run: as §1

HCC1937 = system: HCC1937
How it was run: as §1

HDQ-P1 = system: HDQ-P1
How it was run: as §1

Hs578T = system: Hs578T
How it was run: as §1

MCF-10A = system: MCF-10A
How it was run: as §1

MDA-MB-231 = system: MDA-MB-231
How it was run: as §1

MDA-MB-436 = system: MDA-MB-436
How it was run: as §1

MDA-MB-453 = system: MDA-MB-453
How it was run: as §1

MDA-MB-468 = system: MDA-MB-468
How it was run: as §1

MFM-223 = system: MFM-223
How it was run: as §1

SK-BR-3 = system: SK-BR-3
How it was run: as §1

SMILES | normalised response (BT-474) [%] | normalised response (BT-549) [%] | normalised response (CAL-120) [%] | normalised response (CAL-148) [%] | normalised response (CAL-51) [%] | normalised response (CAL-85-1) [%] | normalised response (DU-4475) [%] | normalised response (HCC1143) [%] | normalised response (HCC1599) [%] | normalised response (HCC1937) [%] | normalised response (HDQ-P1) [%] | normalised response (Hs578T) [%] | normalised response (MCF-10A) [%] | normalised response (MDA-MB-231) [%] | normalised response (MDA-MB-436) [%] | normalised response (MDA-MB-453) [%] | normalised response (MDA-MB-468) [%] | normalised response (MFM-223) [%] | normalised response (SK-BR-3) [%]
Cn1cnc2c(F)c(Nc3ccc(Br)cc3F)c(C(=O)NOCCO)cc21 [MEK-162] (1 nM) | 106 | 99.8 | 100 | 102 | 108 | 95.7 | 99.7 | 99.6 | 99.7 | 96.3 | 93.2 | 95.4 | 96.1 | 99 | 101 | 103 | 103 | 103 | 116
CCOc1cc2ncc(C#N)c(Nc3ccc(OCc4ccccn4)c(Cl)c3)c2cc1NC(=O)/C=C/CN(C)C [Neratinib] (1 nM) | 100 | 96.3 | 96.9 | 107 | 80 | 94.5 | 105 | 101 | 99.2 | 96.7 | 93.8 | 104 | 109 | 107 | 97.1 | 99.5 | 101 | 106 | 73.3
COC1=CC(c2cc3ccccc3[nH]2)=N/C1=C\c1[nH]c(C)cc1C [Obatoclax] (10 nM) | 95 | 96.9 | 98.8 | 89.9 | 121 | 93.6 | 100 | 95.5 | 92.2 | 94.6 | 92.6 | 99.4 | 94.7 | 94.6 | 91 | 104 | 98.9 | 91.4 | 90.2
COC(=O)C[C@](O)(CCCC(C)(C)O)C(=O)O[C@@H]1C(OC)=C[C@]23CCCN2CCc2cc4c(cc2[C@H]13)OCO4 [Omacetaxine] (10 nM) | 103 | 104 | 103 | 115 | 94 | 98.6 | 75.5 | 109 | 92.5 | 100 | 96.1 | 108 | 123 | 105 | 88.7 | 109 | 101 | 106 | 110
CC(C)(C)c1cc(NC(=O)Nc2ccc(-c3cn4c(n3)sc3cc(OCCN5CCOCC5)ccc34)cc2)no1 [Quizartinib] (1 nM) | 118 | 98.8 | 111 | 109 | 112 | 106 | 104 | 110 | 116 | 101 | 98.5 | 97.2 | 110 | 106 | 104 | 104 | 104 | 111 | 56.6
O=C(c1ccc(OCCN2CCCCC2)cc1)c1c(-c2ccc(O)cc2)sc2cc(O)ccc12 [Raloxifene] (10 nM) | 105 | 94.8 | 98.7 | 106 | 68.2 | 99 | 107 | 115 | 100 | 106 | 107 | 105 | 106 | 99.8 | 101 | 94.7 | 112 | 105 | 107
Cn1c(=O)c(F)c(Nc2ccc(I)cc2F)c2c(=O)n(C[C@@H](O)CO)cnc21 [TAK-733] (1 nM) | 45.1 | 99.2 | 95 | 105 | 86.9 | 98.3 | 92.4 | 103 | 102 | 98.1 | 83.7 | 98.6 | 83 | 108 | 98.8 | 98.7 | 100 | 113 | 104
